Experimental data from publication PMC6964270, “Co-Prodrugs of 7-Ethyl-10-hydroxycamptothecin and Vorinostat with in Vitro Hydrolysis and Anticancer Effects” (ACS Omega, 2019).

What was measured:
[1] = system: A549 cell line; test: In vitro cytotoxicity, SRB assay, A549; format: cell-based; conditions: Homo sapiens, 72 h, three independent determinations, read-out: IC50 (mean ± SD) A549
[2] = system: HCT116 cell line; test: In vitro cytotoxicity, SRB assay, HCT116; format: cell-based; conditions: Homo sapiens, HCT-116, 72 h, three independent determinations, read-out: IC50 (mean ± SD) HCT-116
[3] = In vitro degradation and release of co-prodrugs in PBS pH 7.4 (HPLC); format: physicochemical; conditions: pH 7.4 PBS, 37 °C; for formation percentage of SN38: 24 h later
Procedure: (§1) Chromatographic detection was carried out by using Agilent 1200 high-performance liquid chromatography (HPLC, Agilent, Palo Alto, CA) with a Diamonsil C18 (250 mm × 4.6 mm) column. The detection was conducted at 254 nm (UV detector) with the column temperature at room temperature. The sample volume for each injection was 50 μL. The gradient elution was applied with a mobile phase of acetonitrile (ACN) containing 0.1% formic acid and water containing 0.1% formic acid with a constant flow rate of 1 mL/min: 0–15 min (5% ACN to 95% ACN), 15–25 min (95% ACN). The external standard method was established by HPLC in order to determine the content of each compound.
SN38-SAHA co-prodrug solutions with a concentration of 100 μM/L were diluted to 0.05 μM/L with 10 mM PBS buffer (pH 7.4/6.0). After incubation at 37 °C for 0.5, 1, 2, 3, 4, 6, 12, 24, and 48 h, the areas of SN38-SAHA co-prodrugs and other species were detected by HPLC as well. Then each compound was calculated by the concentration–area standard curve, which was obtained by the external standard method.

[4] = In vitro degradation and release of co-prodrugs in human plasma (HPLC); format: in vitro ADME; conditions: male, 37 °C, read-out: t1/2 of co-prodrug in plasma (converted)
Excerpt: SAHA was synthesized before. SN-38 was purchased from Shanghai Puyi Chemical Co., Ltd. Di-tert-butyl dicarbonate ((Boc)2O), 4-dimethylaminopyridine (DMAP), 1,1′-carbonyl-diimidazole (CDI), and N,N′-diisopropylcarbodiimide (DIC) were all purchased from Energy Chemical Reagent Co. ( Shanghai, China). The different amino acids were purchased from Meryer Chemical Reagent Co. (Shanghai, China). CH2Cl2 was dried and redistilled before use. All chemical reagents used were of analytical-grade quality. Mouse plasma was taken from KM mouse (male, 6 weeks old). Human plasma was donated by an adult.
as §1
SN38-SAHA co-prodrug solutions with a concentration of 100 μM/L were diluted to 0.1 μM/L by plasma (human/mouse). After incubation at 37 °C for 0.5, 1, 2, 3, 4, and 6 h, 50 μL of reaction mixture was quenched with 50 μL of cold ACN and centrifuged at 30000 rpm × 5 min. The supernatant (50 μL) was detected by HPLC. Then each compound was calculated by the concentration–area standard curve, which was obtained by the external standard method.

Structure (SMILES)	IC50 [1]	IC50 [2]	half-life at 0.05 μM/L ([3]; PBS buffer, read-out: half-life (t1/2) of co-prodrug in PBS (converted))	formation percentage of SN38 [3]	half-life at 0.1 μM/L [4]
CCc1c2c(nc3ccc(O)cc13)-c1cc3c(c(=O)n1C2)COC(=O)[C@@]3(CC)OC(=O)CNC(=O)ONC(=O)CCCCCCC(=O)Nc1ccccc1 [3a]	0.0873 ± 0.0079 µM	0.113 ± 0.0108 µM	2 h	26.3%	1 h
CCc1c2c(nc3ccc(O)cc13)-c1cc3c(c(=O)n1C2)COC(=O)[C@@]3(CC)OC(=O)CCNC(=O)ONC(=O)CCCCCCC(=O)Nc1ccccc1 [3b]	0.322 ± 0.0325 µM	0.428 ± 0.0205 µM	–	3.4%	3 h
CCc1c2c(nc3ccc(O)cc13)-c1cc3c(c(=O)n1C2)COC(=O)[C@@]3(CC)OC(=O)CCCNC(=O)ONC(=O)CCCCCCC(=O)Nc1ccccc1 [3c]	0.663 ± 0.0243 µM	0.76 ± 0.0309 µM	–	almost have no SN38 generated	5 h
CCc1c2c(nc3ccc(O)cc13)-c1cc3c(c(=O)n1C2)COC(=O)[C@@]3(CC)OC(=O)CCCCCNC(=O)ONC(=O)CCCCCCC(=O)Nc1ccccc1 [3d]	3.1 ± 0.116 µM	3.01 ± 0.251 µM	–	almost have no SN38 generated	5 h
CCc1c2c(nc3ccc(O)cc13)-c1cc3c(c(=O)n1C2)COC(=O)[C@]3(O)CC [SN38, 7-Ethyl-10-hydroxycamptothecin]	0.0454 ± 0.0047 µM	0.0551 ± 0.01 µM	–	–	–
